Assay results from US7220824B1, “Integrin-mediated drug targeting” (Bayer Aktiengesellschaft, priority 2000, dated 2007).
Where two headings read alike, the source gives them in different places.

Assays:
[1] = target: T1, αvβ3 receptor (αvβ3 from human A375 cells) (Homo sapiens, UniProt P05106+P06756); experiment: αvβ3 binding test (echistatin displacement, WGA SPA beads)
T1 construct: αvβ3 from human A375 cells was purified analogously to a procedure which was described by Wong et al; endogenous in cells; host or cells: human A375 cells; the receptor was purified from the cells and used detergent-solubilised (n-octyl-glucopyranoside)
Procedure: αvβ3 from human A375 cells was purified analogously to a procedure which was described by Wong et al. (Molecular Pharmacology, 50, 529–537 (1996)). In each case, 10 μl of αvβ3 (5 ng) in TBS pH 7.6, 2 mM CaCl2, 1 mM MgCl2, 1% n-octyl-glucopyranoside (Sigma); 10 μl of test substance in TBS pH 7.6, 0.1% DMSO and 45 μl of TBS pH 7.6, 2 mM CaCl2, 1 mM MgCl2, 1 mM MnCl2 were incubated at room temperature for 1 h. In each case, 25 μl of WGA SPA beads (Amersham, 4 mg/ml) and 10 μl of echistatin ([…], Amersham, chloramine-T labelled) were then added. After 16 hours at room temperature, the samples were measured in a scintillation measuring apparatus (Wallac 1450).

[2] = system: hemopoietic stem cells (bone marrow cells); experiment: CSF-induced proliferation of hemopoietic stem cells; assay type: cell-based, mice; settings: Bone marrow cell, 168 h
Procedure: Bone marrow cells are flushed out of the femur of mice. 10^5 cells are incubated in McCoy 5A medium (0.3% agar) together with recombinant murine GM-CSF (Genzyme; parent cell colony formation) and the substances (10^−4 to 100 μg/ml) at 37° C. and 7% CO2. 7 days later, the colonies (<50 cells) and clusters (17–50 cells) are counted.

SW480 = experiment: Growth inhibition test (MTT), cytotoxic action on tumour cell lines; assay type: cell-based; settings: Homo sapiens, SW480, 144 h, read-out: IC50 values of the cytotoxic action on tumour cell lines, SW480
Procedure: (§1) The human large intestine cell lines SW 480 and HT29 (ATCC No. CCL 228 and HTB38), the human breast cell lines MDA-MB 231, MCF-7 and BT20 (ATCC No. HTB-, 26, 22 and 23) and the mouse melanoma cell line B16F 10 (CRL 6475) were grown to confluence in Roux dishes in RPMI 1640 medium with addition of 10% FCS. They were then trypsinized and taken up in RPMI plus 10% FCS to a cell count of 50,000 cells or, for B16F10, 20,000 cells per ml. 100 μl of cell suspension/well were added to a 96 microwell plate and incubated at 37° C. for 1 day in a CO2 incubator. A further 100 μl of RPMI medium and 1 μl of DMSO were then added with the test substances. The growth was checked after day 6. For this, 25 μl of MTT solution (3-(4,5-dimethylthiazol-2-yl)-2,5-diphenyltetrazolium bromide) was added to each well at a starting concentration of 5 mg/ml of H2O. The plate was incubated at 37° C. for 5 hours in a CO2 incubator. The medium was then aspirated and 100 μl of i-propanol/well were added. After shaking with 100 μl of H2O for 30 min, the extinction was measured at 595-nm using a Multiplate Reader (BIO-RAD 3550-UV).
(§2) The cytostatic action is indicated in Table 2 as an IC50 value, in each case for the individual cell lines.

MCF7 = experiment: as above; assay type: cell-based; settings: Homo sapiens, MCF7, 144 h, read-out: IC50 values of the cytotoxic action on tumour cell lines, MCF7
Procedure: as §1, §2

BT20 = experiment: as above; assay type: cell-based; settings: Homo sapiens, BT-20, 144 h, read-out: IC50 values of the cytotoxic action on tumour cell lines, BT20
Procedure: as §1, §2

MDA-MB 231 = experiment: as above; assay type: cell-based; settings: Homo sapiens, MDA-MB-231, 144 h, read-out: IC50 values of the cytotoxic action on tumour cell lines, MDA-MB 231
Procedure: as §1, §2

HT 29 = experiment: as above; assay type: cell-based; settings: Homo sapiens, HT-29, 144 h, read-out: IC50 values of the cytotoxic action on tumour cell lines, HT 29
Procedure: as §1, §2

B16F10 = experiment: as above; assay type: cell-based; settings: Mus musculus, B16-F10, 144 h, read-out: IC50 values of the cytotoxic action on tumour cell lines, B16F10
Procedure: as §1, §2

[3] = αvβ3 purified from human A375 cells, labelled echistatin, read-out: IC50 values of the binding to the αvβ3 receptor
[4] = Mus musculus, read-out: IC50, CSF-induced proliferation of hemopoietic stem cells, mouse bone marrow cells, recombinant murine GM-CSF, 7 days, colony count

T1 sequence (P06756 31-889 limits assumed): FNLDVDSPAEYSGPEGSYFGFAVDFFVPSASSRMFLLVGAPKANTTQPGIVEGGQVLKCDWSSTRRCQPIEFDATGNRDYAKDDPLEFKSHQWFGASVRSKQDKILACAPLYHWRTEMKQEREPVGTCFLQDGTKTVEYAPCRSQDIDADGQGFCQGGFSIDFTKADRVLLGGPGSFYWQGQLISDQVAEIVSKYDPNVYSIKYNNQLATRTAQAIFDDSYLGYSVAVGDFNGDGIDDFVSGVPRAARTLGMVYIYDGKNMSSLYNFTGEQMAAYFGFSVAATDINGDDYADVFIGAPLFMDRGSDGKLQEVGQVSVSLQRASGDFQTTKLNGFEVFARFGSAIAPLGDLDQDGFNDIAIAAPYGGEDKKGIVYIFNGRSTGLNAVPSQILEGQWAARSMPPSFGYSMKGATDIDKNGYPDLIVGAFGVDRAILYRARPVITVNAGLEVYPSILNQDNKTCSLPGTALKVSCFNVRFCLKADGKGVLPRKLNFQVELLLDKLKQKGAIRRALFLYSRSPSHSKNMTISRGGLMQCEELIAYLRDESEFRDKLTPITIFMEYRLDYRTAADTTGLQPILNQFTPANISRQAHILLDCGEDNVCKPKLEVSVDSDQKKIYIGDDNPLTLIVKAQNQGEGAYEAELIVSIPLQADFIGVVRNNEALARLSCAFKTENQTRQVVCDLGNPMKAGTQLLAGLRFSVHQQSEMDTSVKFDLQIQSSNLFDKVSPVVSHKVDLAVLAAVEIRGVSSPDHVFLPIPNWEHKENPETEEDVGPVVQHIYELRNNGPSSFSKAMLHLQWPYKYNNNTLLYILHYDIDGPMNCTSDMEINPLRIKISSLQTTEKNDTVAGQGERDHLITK
T1 sequence (P06756 891-1048 partner limits assumed): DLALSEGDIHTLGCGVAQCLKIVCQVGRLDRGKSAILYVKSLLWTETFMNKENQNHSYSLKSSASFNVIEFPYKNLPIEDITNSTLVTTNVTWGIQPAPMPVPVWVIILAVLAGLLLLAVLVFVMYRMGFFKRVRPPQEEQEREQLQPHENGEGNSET
T1 sequence (P05106 27-788): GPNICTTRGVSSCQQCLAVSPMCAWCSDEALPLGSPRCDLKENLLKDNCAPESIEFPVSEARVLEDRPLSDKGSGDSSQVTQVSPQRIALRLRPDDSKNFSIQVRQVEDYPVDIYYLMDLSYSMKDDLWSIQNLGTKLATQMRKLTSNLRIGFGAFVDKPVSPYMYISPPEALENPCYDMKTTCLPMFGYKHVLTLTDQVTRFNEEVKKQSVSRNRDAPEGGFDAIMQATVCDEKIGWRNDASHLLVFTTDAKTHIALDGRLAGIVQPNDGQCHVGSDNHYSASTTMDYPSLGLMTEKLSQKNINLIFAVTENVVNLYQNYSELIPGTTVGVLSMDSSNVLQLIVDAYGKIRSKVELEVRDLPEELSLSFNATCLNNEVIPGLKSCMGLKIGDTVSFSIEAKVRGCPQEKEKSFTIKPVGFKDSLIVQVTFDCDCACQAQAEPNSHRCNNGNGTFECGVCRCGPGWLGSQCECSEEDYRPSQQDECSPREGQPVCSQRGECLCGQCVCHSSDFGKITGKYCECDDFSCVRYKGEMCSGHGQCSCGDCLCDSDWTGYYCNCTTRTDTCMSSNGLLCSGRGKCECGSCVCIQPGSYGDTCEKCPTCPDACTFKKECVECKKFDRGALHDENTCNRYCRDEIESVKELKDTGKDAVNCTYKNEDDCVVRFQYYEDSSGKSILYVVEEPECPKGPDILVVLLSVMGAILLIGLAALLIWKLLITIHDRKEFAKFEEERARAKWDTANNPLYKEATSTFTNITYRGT

| Structure (SMILES) | IC50 [1, 3] [µM] | IC50 [2, 4] [ng/mL] | IC50 [1] [µM] | IC50 (SW480) [µM] | IC50 (MCF7) [µM] | IC50 (BT20) [µM] | IC50 (MDA-MB 231) [µM] | IC50 (HT 29) [µM] | IC50 (B16F10) [µM] | IC50 ([2]; mouse bone marrow cells, recombinant murine GM-CSF, 7 days, colony count, read-out: IC50, CSF-induced proliferation of hemopoietic stem cells) [ng/mL] |
| --- | --- | --- | --- | --- | --- | --- | --- | --- | --- | --- |
| CCCNC(=O)Nc1cccc(S(=O)(=O)Nc2cccc(C(CC(=O)O)NC(=O)CCCC(=O)N[C@@H](CC(C)C)C(=O)NCC(=O)N[C@@H](CC(C)C)C(=O)O[C@]3(CC)C(=O)OCc4c3cc3n(c4=O)Cc4cc5ccccc5nc4-3)c2)c1 (stereo partly drawn) [Example 3.21] | 0.549 | 80 |  |  |  |  |  |  |  |  |
| CCCNC(=O)Nc1cccc(S(=O)(=O)Nc2cccc(C(CC(=O)O)NC(=O)CCCC(=O)N3CCC[C@H]3C(=O)N[C@@H](CC(C)C)C(=O)NCC(=O)N[C@@H](CC(C)C)C(=O)O[C@]3(CC)C(=O)OCc4c3cc3n(c4=O)Cc4cc5ccccc5nc4-3)c2)c1 (stereo partly drawn) [Example 3.23] |  | 6 | 0.355 |  |  |  |  |  |  |  |
| CCCNC(=O)Nc1cccc(S(=O)(=O)Nc2cccc(C(CC(=O)O)NS(=O)(=O)c3ccc(NC(=S)N[C@@H](Cc4c[nH]cn4)C(=O)N[C@H](C(=O)O[C@]4(CC)C(=O)OCc5c4cc4n(c5=O)Cc5cc6ccccc6nc5-4)C(C)C)cc3)c2)c1 (stereo partly drawn) [Example 3.12] |  |  | 0.39 | 0.3 | 0.1 | 0.15 | 0.15 | 0.15 | 0.25 |  |
| CCC1(OC(=O)[C@@H](NC(=O)Nc2cccc(-c3ccc(S(=O)(=O)NC(CC(=O)O)c4ccccc4)cc3)c2)C(C)C)C(=O)OCc2c1cc1n(c2=O)Cc2cc3ccccc3nc2-1 (stereo partly drawn) [Example 2.12] | 0.127 |  |  | 0.02 | 0.01 | 0.008 | 0.01 | 0.009 | 0.02 |  |
| CC[C@@]1(OC(=O)[C@@H](NC(=O)C(Cc2c[nH]cn2)NC(=S)Nc2ccc(CC(NS(=O)(=O)c3ccc(-c4cccc(NC(=O)Nc5nc6ccccc6[nH]5)c4)cc3)C(=O)O)cc2)C(C)C)C(=O)OCc2c1cc1n(c2=O)Cc2cc3ccccc3nc2-1 (stereo partly drawn) [Example 3.11] |  |  | 0.097 | 0.6 | 0.25 | 0.5 | 0.4 | 0.3 | 0.6 |  |
| CCCNC(=O)Nc1cccc(S(=O)(=O)Nc2cccc(C(CC(=O)O)NC(=O)CCCC(=O)NCC(=O)N[C@@H](CC(C)C)C(=O)N[C@H](C(=O)O[C@]3(CC)C(=O)OCc4c3cc3n(c4=O)Cc4cc5ccccc5nc4-3)C(C)C)c2)c1 (stereo partly drawn) [Example 3.22] | 0.531 | 6 |  |  |  |  |  |  |  |  |
| CC[C@@]1(OC(=O)[C@@H](NC(=O)[C@H](CCCCN)NC(=S)Nc2ccc(S(=O)(=O)NC(CC(=O)O)c3cccc(NS(=O)(=O)c4cccc(NC(=N)N)c4)c3)cc2)C(C)C)C(=O)OCc2c1cc1n(c2=O)Cc2cc3ccccc3nc2-1 (stereo partly drawn) [Example 3.4] | 0.065 |  |  | 0.2 | 0.7 | 0.7 | 0.3 | 0.2 | 0.5 |  |
| CC[C@@]1(OC(=O)C(NC(=O)C(CCCCN)NC(=S)Nc2cccc(-c3ccc(C[C@H](NS(=O)(=O)CC45CCC(CC4=O)C5(C)C)C(=O)O)cc3)c2)C(C)C)C(=O)OCc2c1cc1n(c2=O)Cc2cc3ccccc3nc2-1 (stereo partly drawn) [Example 2.5] | 0.19 |  |  | 0.2 | 0.3 | 0.4 | 0.3 | 0.3 | 0.4 |  |
| CC[C@@]1(O)C(=O)OCc2c1cc1n(c2=O)Cc2cc3ccccc3nc2-1 [Camptothecin, 20(S)-Camptothecin, reference compound] |  |  |  |  |  |  |  |  |  | 0.3 |
| CCCNC(=O)Nc1cccc(-c2ccc(CC(NC(=S)Nc3cccc4nc5c(cc34)Cn3c-5cc4c(c3=O)COC(=O)[C@]4(O)CC)C(=O)O)cc2)c1 (stereo partly drawn) [Example 3.15] | 0.061 |  |  | 0.2 | 0.3 | 2 | 0.2 | 0.2 | 6 |  |
| CC[C@@]1(OC(=O)[C@@H](NC(=O)[C@H](CCCCNC(=O)OCC2c3ccccc3-c3ccccc32)NC(=O)Nc2cccc(-c3cccc(S(=O)(=O)NC(CC(=O)O)c4ccccc4)c3)c2)C(C)C)C(=O)OCc2c1cc1n(c2=O)Cc2cc3ccccc3nc2-1 (stereo partly drawn) [Example 2.9] |  |  | 0.236 | 1 | 0.3 | 1.5 | 0.7 | 0.7 | 0.3 |  |
| CC[C@@]1(OC(=O)[C@@H](NC(=O)[C@H](Cc2cnc[nH]2)NC(=S)Nc2ccc(CC(NS(=O)(=O)c3cccc(-c4cccc(NC(=O)Nc5nc6ccccc6[nH]5)c4)c3)C(=O)O)cc2)C(C)C)C(=O)OCc2c1cc1n(c2=O)Cc2cc3ccccc3nc2-1 (stereo partly drawn) [Example 3.9] |  |  | 0.22 | 0.4 | 0.15 | 0.5 | 0.06 | 0.06 | 1 |  |
| CC[C@@]1(OC(=O)[C@@H](NC(=O)[C@H](CCCCN)NC(=S)Nc2cccc(C(=O)NCC(=O)NC(CC(=O)O)c3ccccc3)c2)C(C)C)C(=O)OCc2c1cc1n(c2=O)Cc2cc3ccccc3nc2-1 (stereo partly drawn) [Example 2.1] | 1.45 |  |  | 0.15 | 0.07 | 0.1 | 0.06 | 0.09 | 0.4 |  |
| CC[C@@]1(OC(=O)CCC(=O)NC(CC(=O)O)c2cccc(NS(=O)(=O)c3cccc(NC(=N)N)c3)c2)C(=O)OCc2c1cc1n(c2=O)Cc2cc3ccccc3nc2-1 (stereo partly drawn) [Example 3.18] |  |  | 0.079 | 0.3 | 0.6 | 0.9 | 0.5 | 0.18 | 1 |  |
| CC[C@@]1(OC(=O)[C@@H](NC(=O)[C@H](CCCCNC(=O)OCC2c3ccccc3-c3ccccc32)NC(=O)Nc2cccc(-c3ccc(S(=O)(=O)NC(CC(=O)O)c4ccccc4)cc3)c2)C(C)C)C(=O)OCc2c1cc1n(c2=O)Cc2cc3ccccc3nc2-1 (stereo partly drawn) [Example 2.14] |  |  | 0.084 | 0.3 | 0.15 | 0.2 | 0.3 | 0.3 | 0.025 |  |
| CC[C@@]1(OC(=O)[C@@H](NC(=O)[C@H](Cc2c[nH]cn2)NC(=S)Nc2cccc(S(=O)(=O)NC(CC(=O)O)c3cccc(NS(=O)(=O)c4cccc(NC(=N)N)c4)c3)c2)C(C)C)C(=O)OCc2c1cc1n(c2=O)Cc2cc3ccccc3nc2-1 (stereo partly drawn) [Example 3.1] |  |  | 0.147 | 1 | 0.8 | 1 | 0.5 | 0.4 | 1 |  |
| CC[C@@]1(OC(=O)[C@@H](NC(=O)Nc2cccc(-c3cccc(S(=O)(=O)NC(CC(=O)O)c4ccccc4)c3)c2)C(C)C)C(=O)OCc2c1cc1n(c2=O)Cc2cc3ccccc3nc2-1 (stereo partly drawn) [Example 2.13] | 0.097 |  |  | 0.015 | 0.01 | 0.005 | 0.02 | 0.015 | 0.02 |  |
| CC[C@@]1(OC(=O)[C@@H](NC(=O)[C@H](Cc2cnc[nH]2)NC(=S)Nc2ccc(CC(NS(=O)(=O)c3cc(-c4cccc(NC(=O)Nc5nc6ccccc6[nH]5)c4)ccc3OC)C(=O)O)cc2)C(C)C)C(=O)OCc2c1cc1n(c2=O)Cc2cc3ccccc3nc2-1 (stereo partly drawn) [Example 3.7] |  |  | 0.111 | 0.4 | 0.4 | 0.6 | 0.3 | 0.2 | 0.8 |  |
